# According to patent US20200230205A1, “COMPOSITIONS AND METHODS FOR TREATING MYELIN DISORDERS” (CASE WESTERN RESERVE UNIVERSITY, priority 2017, published 2020):
# Key:
# aggrecan (CS56) = test: CSPG degradation by OPC conditioned media (CS56 spot quantification and western blot of aggrecan); format: cell-based, mouse
# Procedure: (§1) CSPG gradients were prepared as described previously (Tom, V. J., et al. Studies on the Development and Behavior of the Dystrophic Growth Cone, the Hallmark of Regeneration Failure, in an In vitro Model of the Glial Scar and after Spinal Cord Injury.). 24-well glass coverslip were coated with poly-L-lysine and nitrocellulose, and a mixture of 700 μg/mL aggrecan (A1960 Sigma) and 10 μg/mL laminin (11243217001 Sigma) spotted on the coated coverslip. After drying, coated coverslips were then incubated with laminin at 37° C. for 3h. Purified OPCs were plated at a density of 10,000/coverslip and cultured in DMEM/F12 medium containing with N2, PDGF (20 ng/ml), FGF (20 ng/ml), NT-3 (5 ng/ml), CNTF (O1 ng/ml), Glutamine (200 mM). Coverslips were stained with CS-56 (C8035, Sigma, 1:500) and O4 antibodies (Hybridoma Core Cleveland Clinic, 1:10). O4-positive cells crossing the aggrecan border were counted for each spot. For CSPG gradient quantification, 1×10^6 OPCs were plated per well on PLL, 1 μg/mL laminin, and 2 μg/mL aggrecan coated 6-well plates. OPCs treated with vehicle, 2.5 μM ISP, or 2.5 μM SISP for 2 days at 37° C. CM was harvested and incubated with freshly made spots. Spots were incubated with CM for 2 days at 37° C. then stained with CS-56 and laminin (L9393, Sigma, 1:1000) antibodies and consistently imaged. Using ImageJ software (NIH), pixel intensities of the CS-56 or laminin spot rims were quantified using the same ROI. For cultured spinal cord explant, the spinal cords of cervical and thoracic of P1 mouse pups were chopped into 1-2 mm tissue pieces and transferred to the coverslip. Explants were cultured in DMEM/F12 medium with 15% FBS (Hyclone), O1 ng/ml PDGF (Sigma) and N2 supplement (Invitrogen). For ISP treatment, 2.5 uM ISP was added to the media at the time of plating. 25 μM GM6001 (2983, Tocris), 100 nM MMP-2 inhibitor (444244, Calbiochem), and/or 2.5 μM ISP or SISP was used.
# CM was harvested from 1×10^6 OPCs incubated on PLL, 1 μg/mL laminin, and 2 μg/mL aggrecan coated 6-well plates. OPCs were treated with vehicle, 2.5 μM ISP, or 2.5 μM SISP in conjunction with 10 μg/mL Exo1 (ab120292, Abcam), or 25 μM GM6001 (364205, Calbiochem) for 2 days at 37° C. […] CM of each cell-strained group was incubated with 20 μg/mL aggrecan and/or 10 μg/mL laminin for 2 hours in lmL Eppendorf tubes at 37° C. As a positive control, OPC media was incubated with aggrecan and incubated in the same fashion. Western blots were then performed as described below with incubation against CS-56 and/or laminin antibodies.
# [1] = system: organotypic cerebellar slice cultures; test: LPC-induced demyelination in mouse cerebellar slice cultures; format: cell-based
# Description: We carried out the cerebellar slice culture method as described previously (Zhang, H., et al. Central nervous system remyelination in culture—A tool for multiple sclerosis research. Experimental Neurology 230, 138-148 (2011)). Briefly, 300 μm-thick cerebellar slices were cut from P10-12 mouse cerebellum using a Leica vibrating microtome (Leica, VT1000S) and cultured in medium containing 50% basal medium eagle medium, 25% Heat-inactivated horse serum, 25% Hank's solution, 2.5% glucose, 1% glutamine and penicillin-streptomycin. After 4 days in vitro (DIV), 0.5 mg/ml LPC were added for 17-18h to induce demyelination. Slices were then incubated with 2.5 μM ISP for 8 days. For GM6001 experiments, 25 μM GM6001 (Tocris) and/or 2.5 μM ISP or SISP was incubated for 9 days. Remyelination was examined by semi-quantitative Western blot of MBP and immunofluorescence stain of MBP and NeuF200.
# Slices were fixed with 4% PFA, delipidated, and washed three times in PBS, blocked in PBS containing 0.1% Triton X-100 and 5% normal goat serum and incubated with anti-MBP (SMI-99P, Covance, 1:300), and anti-NeuF200 (N4142, Sigma, 1:250) antibodies overnight at 4° C. The slices were then washed in PBS and incubated in Alexa Fluor-conjugated secondary antibodies (1:500, invitrogen) for 2h. Slices were mounted in Vectashield mounting medium with DAPI (Vector Laboratories) and analyzed using Leica DFC500 fluorescence microscope.
# [2] = system: oligodendrocyte progenitor cells (OPCs); test: Ki-67 proliferation and TUNEL apoptosis of OPCs on aggrecan/laminin; format: cell-based, mouse
# Procedure: To assess proliferation, OPCs were plated on 24-well coverslips that were precoated with PLL, 1 μg/mL laminin, and 2 μg/mL aggrecan. OPCs were treated with vehicle, 2.5 μM ISP or SISP immediately upon plating for 2 days at 37° C. Coverslips were fixed and stained using the same method described in the immunocytochemistry section with Ki-67 (550609, BD Pharmingen, 1:500) and O4 (1:10). Coverslips were imaged and counted. To assess apoptosis, OPCs were cultured in the same fashion and incubated with vehicle or 1 μg/mL LPC for 2 hours at 2 days following vehicle, 2.5 μM ISP or SISP incubation. Coverslips were then fixed with PFA and methanol then stained using APO-BrdU TUNEL assay kit (A23210, ThermoFisher) and guidelines with an O/N incubation of the primary antibody at RT. Coverslips were additionally costained with DAPI (D9542, Sigma, 1:10,000) then imaged and counted.
# [3] = system: oligodendrocyte progenitor cells (OPCs); test: CSPG gradient crossing (spot) assay, OPC migration; format: cell-based, mouse
# Procedure: as §1
Compound,CS56 spot degradation (aggrecan (CS56); 25 μM GM6001 or 100 nM OA-Hy with 2.5 μM ISP),"aggrecan GAG digestion (CS56 immunoblot) (aggrecan (CS56); Exo1 10 μg/mL, GM6001 25 μM or OA-Hy 100 nM with 2.5 μM ISP)","colocalization of MBP and neurofilament+ axons ([1]; 25 μM GM6001 or 100 nM OA-Hy in conjunction with 2.5 μM ISP, 9 days)","apoptosis (TUNEL) following LPC treatment ([2]; 100 nM OA-Hy with ISP, LPC 1 μg/mL 2 hours, vs LPC-ISP)","TUNEL+ cells/total cells ([2]; 100 nM OA-Hy, 2 days in vitro, no LPC)","OPC entry into the CSPG-rich area ([3]; 25 μM GM6001 or 100 nM OA-Hy, even in the presence of ISP)","CS56 immunoblot of aggrecan incubated with OPC CM (aggrecan (CS56); 2.5 μM ISP, aggrecan 20 μg/mL)","CS56 expression of aggrecan/laminin spots (aggrecan (CS56); CM of OPCs treated with 2.5 μM ISP, vs vehicle, SISP and no cell control)","CS56 band, western blot (aggrecan (CS56); ISP at 2.5 and 5 μM doses vs control)","aggrecan digestion, dependence on ISP dose (western blot) (aggrecan (CS56); varying doses of ISP, aggrecan 20 μg/mL, 2 hours)","MBP-neurofilament colocalization ([1]; 2.5 μM ISP for 9 days after LPC, vs control)","remyelination (MBP and NF200 colocalization) ([1]; 2.5 μM ISP, 8 div after LPC, vs vehicle)",aggrecan (Cat301) expression vs vehicle ([1]; 4 div),aggrecan (Cat301) presence ([1]; 8 div),CSPG expression vs vehicle ([1]; 14 div),"remyelination (MBP and NF200 colocalization, western blot) ([1]; ISP, 14 div after LPC)","OPC proliferation (Ki67) ([2]; 2.5 μM peptide, 2 div, laminin 1 and aggrecan 2 μg/mL, vs control)","OPC death (TUNEL) after LPC challenge ([2]; LPC 1 μg/mL, 2 hours, 2.5 μM ISP)","percentage of apoptotic cells (TUNEL) ([2]; OPCs on low laminin and aggrecan, 2.5 μM ISP)","O4+ OPCs crossing the CSPG barrier ([3]; purified OPCs, 2.5 μM ISP vs control)"
"CCCCCCCC/C=C\CCCCCCCC(=O)NO [OA-Hy, reference compound]",additionally rescued CS56 spot degradation,partially rescued,decreased,increased apoptosis,did not significantly increase,effectively halted OPC entry,–,–,–,–,–,–,–,–,–,–,–,–,–,–
GRKKRRQRRRCDMAEHMERLKANDSLKLSQEYESI [ISP],–,–,–,–,–,–,significant CS56 degradation,significantly reduced CS56 expression,significant ISP-treated CS56 degradation,dose-dependent manner,significantly increased,increased remyelination,similar,decrease in aggrecan presence,greater CSPG decrease,abundant remyelinated axons,no significant differences,decreased OPC death,decreased the percentage of apoptotic cells,significantly induced greater O4+ OPC migration
